Results from US20110033397A1, “Anti-Aging Compositions Comprising Menyanthes Trifoliata Leaf Extracts And Methods Of Use Thereof” (priority 2006, published 2011).
Like-named read-outs stand apart in the source and are kept apart here.

Legend:
Assay type in all cases: biochemical
MMP-2 = biological target: T1, MMP-2 (Homo sapiens, UniProt P08253); assay: In vitro specific inhibition of MMP-2 activity (Biomol assay kit); details: for IC50: selected standards, Table 4, read-out: inhibition expressed as IC50 against MMP-2 (converted); for in vitro MMP-2 inhibition activity, in words: summary of Tables 2 and 4
T1 construct: purchased Biomol
T1 sequence (P08253 110-446 limits assumed): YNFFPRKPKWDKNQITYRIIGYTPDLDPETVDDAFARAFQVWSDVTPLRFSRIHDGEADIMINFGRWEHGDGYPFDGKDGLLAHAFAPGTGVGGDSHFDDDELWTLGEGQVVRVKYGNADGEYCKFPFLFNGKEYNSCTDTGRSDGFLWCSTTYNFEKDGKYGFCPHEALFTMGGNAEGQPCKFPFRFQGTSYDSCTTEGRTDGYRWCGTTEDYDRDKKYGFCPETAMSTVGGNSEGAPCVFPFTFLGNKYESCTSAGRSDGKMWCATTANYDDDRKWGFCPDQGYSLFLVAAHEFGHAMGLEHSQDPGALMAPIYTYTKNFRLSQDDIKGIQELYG
Protocol: (§1) Several extracts and sub-fractions from the leaves of Menyanthes trifoliata were prepared by liquid-liquid partitioning and fractionation on a Sephadex LH20 gel filtration column (see example 1) and evaluated for specific anti-MMP activity. In vitro specific inhibition of MMP-2 and MMP-9 activity was estimated with assay kits from Biomol®. Recombinant human MMP-1 enzyme may be obtained from any commercially available source. […] Therefore, a lower value indicates a stronger MMP inhibition.
(§2) To further understand which agents may be contributing to the MMP-1, 2, 9 inhibition activity, standards of the different phenol acids, flavonoids and coumarins, identified in Menyanthes trifoliata extracts, were tested for their in vitro inhibition of MMPs-1, 2 and 9. In vitro specific inhibition of MMP-2 and MMP-9 activity is estimated with assay kits from Biomol®. Recombinant human MMP-1 enzyme is obtained from any commercially available source.

[1] = biological target: T2, Recombinant human MMP-1 enzyme (Homo sapiens, UniProt P03956); assay: In vitro inhibition of MMP-1 activity; details: for in vitro MMP-1 inhibition activity, in words: summary of Tables 2 and 4
T2 construct: purchased
T2 sequence (P03956 100-469): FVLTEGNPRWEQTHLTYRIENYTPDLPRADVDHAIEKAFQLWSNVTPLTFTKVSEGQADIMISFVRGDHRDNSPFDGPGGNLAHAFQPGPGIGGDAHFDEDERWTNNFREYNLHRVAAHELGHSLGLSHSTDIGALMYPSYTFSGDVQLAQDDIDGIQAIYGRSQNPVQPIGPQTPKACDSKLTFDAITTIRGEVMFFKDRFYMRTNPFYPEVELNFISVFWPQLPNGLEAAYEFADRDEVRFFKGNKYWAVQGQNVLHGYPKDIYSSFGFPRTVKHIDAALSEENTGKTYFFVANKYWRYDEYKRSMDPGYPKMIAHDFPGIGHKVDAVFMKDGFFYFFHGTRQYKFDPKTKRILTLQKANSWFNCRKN
Text: In vitro specific inhibition of MMP-2 and MMP-9 activity was estimated with assay kits from Biomol®. Recombinant human MMP-1 enzyme may be obtained from any commercially available source. […] Therefore, a lower value indicates a stronger MMP inhibition.
In vitro specific inhibition of MMP-2 and MMP-9 activity is estimated with assay kits from Biomol®. Recombinant human MMP-1 enzyme is obtained from any commercially available source.

MMP-9 = biological target: T3, MMP-9 (Homo sapiens, UniProt P14780); assay: In vitro specific inhibition of MMP-9 activity (Biomol assay kit); details: for IC50: selected standards, Table 4, read-out: inhibition expressed as IC50 against MMP-9 (converted); for in vitro MMP-9 inhibition activity, in words: summary of Tables 2 and 4
T3 construct: purchased Biomol
T3 sequence (P14780 107-444 limits assumed): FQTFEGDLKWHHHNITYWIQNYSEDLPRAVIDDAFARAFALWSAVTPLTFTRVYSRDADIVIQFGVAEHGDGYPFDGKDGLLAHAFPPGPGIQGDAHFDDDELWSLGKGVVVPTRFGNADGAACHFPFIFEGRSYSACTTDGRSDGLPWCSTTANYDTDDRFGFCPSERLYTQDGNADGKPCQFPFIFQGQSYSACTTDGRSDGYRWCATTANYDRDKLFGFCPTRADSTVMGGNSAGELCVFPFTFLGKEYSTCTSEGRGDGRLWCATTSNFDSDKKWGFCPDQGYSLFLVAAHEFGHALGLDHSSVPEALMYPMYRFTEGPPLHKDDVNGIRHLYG
Protocol: as §1, §2

[2] = Peroxynitrite scavenging (ABEL peroxynitrite antioxidant test kit with Pholasin); details: summary of Table 6
Protocol: Assay was performed with the ABEL® peroxynitrite antioxidant test kit with Pholasin®. Standards of different phenolic acids and flavonoids, identified in […] trifoliata extracts, were tested for their in vitro peroxynitrite scavenging activity. Assay was performed with the ABEL® peroxynitrite antioxidant test kit with Pholasin®.

[3] = selected standards, Table 4, read-out: inhibition expressed as IC50 against MMP-1 (converted)

Compound	IC50 (MMP-2) [µM]	IC50 [1] [µM]	IC50 (MMP-9) [µM]	peroxynitrite scavenging activity, in words [2]	in vitro MMP-2 inhibition activity, in words (MMP-2)	in vitro MMP-1 inhibition activity, in words [1]	in vitro MMP-9 inhibition activity, in words (MMP-9)	IC50 [1, 3] [µM]
O=c1c(O[C@@H]2O[C@H](CO)[C@@H](O)[C@H](O)[C@H]2O)c(-c2ccc(O)c(O)c2)oc2cc(O)cc(O)c12 [Iso-quercitrin]	21.5	49.5	198	–	–	–	–	–
O=C(O)c1ccc(O)c(O)c1 [Protocatechuic acid]	–	–	–	strong	–	–	–	–
O=c1c(O)c(-c2ccc(O)c(O)c2)oc2cc(O)cc(O)c12 [Quercetin]	33.1	–	62.9	strong	strong	strong	strong	–
C[C@@H]1O[C@@H](OC[C@H]2O[C@@H](Oc3c(-c4ccc(O)c(O)c4)oc4cc(O)cc(O)c4c3=O)[C@H](O)[C@@H](O)[C@@H]2O)[C@H](O)[C@H](O)[C@H]1O [Rutin]	45.9	–	70.4	–	–	–	–	65.5
COc1cc2ccc(=O)oc2cc1OC [Scoparone]	87.3	–	48.5	–	strong	strong	strong	72.7
COc1cc2ccc(=O)oc2cc1O [Scopoletin]	93.7	–	130	–	strong	strong	strong	78.1
COc1cc(/C=C/C(=O)O)ccc1O [ferulic acid]	113	–	103	strong	strong	strong	strong	144
O=C(O)c1ccc(O)cc1 [p-hydroxy-benzoic acid]	–	–	–	–	–	not	not	–
